In patent publication US4279926A, “Method of relieving pain and treating inflammatory conditions in warm-blooded animals” (priority 1974, dated 1981):
Structures can show the parent of a compound that is named as a salt.

Key:
Solubility = format: physicochemical
pH of aqueous solution = format: physicochemical
gastro-intestinal mucosa = details: known from the art; cited from earlier work
clinical = details: human, in vivo, po, Human blood level, single oral dose 500 mg D,L-lysine salt (Table 5) or equivalent 300 mg sodium salt (Table 6), serum, as free acid
Description: The blood levels were then determined after 0.5, 1, 1.5, 2, 3, 4 and 5 hours.

[1] = system: carrageenin oedema, inflamed paw; experiment: Carrageenin oedema of the rat paw (anti-inflammatory action, paw size/volume); format: in vivo, male Wistar rats; details: oral, Tables 1, 2 and 3
[2] = system: pain threshold in the inflamed paw (carrageenin oedema); experiment: Pain threshold under pressure of the inflamed (carrageenin) rat paw (analgesic action); details: for Pain threshold - carrageenin oedema: Table 3
Description: At intervals after the treatment, the size of the treated paw and its sensitivity to pain under pressure were evaluated.

CC(C)Cc1ccc(C(C)C(=O)O)cc1 (racemic) [Example 8, D,L-arginine salt of 2-(4-isobutylphenyl)-propionic acid]
Solubility in water (Solubility): moderately soluble in water
pH of aqueous solution (pH of aqueous solution): pH close to neutrality

O=C(O)Cc1ccccc1Oc1ccc(Cl)cc1Cl [Example 6, lysine salt of 2-(2,4-dichlorophenoxy)-phenyl-acetic acid]
Solubility in water (Solubility): water-soluble

COc1ccc2c(c1)c(CC(=O)O)c(C)n2C(=O)c1ccc(Cl)cc1 [indomethacine]
Undesired side-effects (gastro-intestinal intolerance, ulceration) compared with phenyl-alkanoic acids (gastro-intestinal mucosa): also show these undesired side-effects in an even more pronounced form

C=CCOc1ccc(CC(=O)O)cc1Cl [Example 10, arginine salt of 2-(3-chloro-4-allyloxyphenyl)-acetic acid]
Solubility in water (Solubility): moderately soluble in water

CC(C)Cc1ccc(C(C)C(=O)[O-])cc1.[Na+] (stereo not drawn)
concentration at 0.5 h (clinical; subject B): 10500 ng/mL
concentration at 0.5 h (clinical; subject C): 3800 ng/mL
concentration at 0.5 h (clinical; subject D): 5500 ng/mL
concentration at 0.5 h (clinical; subject E): 3300 ng/mL
concentration at 1 h (clinical; subject B): 16600 ng/mL
concentration at 1 h (clinical; subject C): 4500 ng/mL
concentration at 1 h (clinical; subject D): 6000 ng/mL
concentration at 1 h (clinical; subject E): 9800 ng/mL
concentration at 1.5 h (clinical; subject B): 11000 ng/mL
concentration at 1.5 h (clinical; subject C): 6000 ng/mL
concentration at 1.5 h (clinical; subject D): 7000 ng/mL
concentration at 1.5 h (clinical; subject E): 8700 ng/mL
concentration at 2 h (clinical; subject A): 900 ng/mL
concentration at 2 h (clinical; subject B): 10300 ng/mL
concentration at 2 h (clinical; subject C): 8700 ng/mL
concentration at 2 h (clinical; subject D): 16300 ng/mL
concentration at 2 h (clinical; subject E): 7900 ng/mL
concentration at 3 h (clinical; subject A): 1300 ng/mL
concentration at 3 h (clinical; subject B): 3000 ng/mL
concentration at 3 h (clinical; subject C): 8700 ng/mL
concentration at 3 h (clinical; subject D): 13600 ng/mL
concentration at 3 h (clinical; subject E): 9600 ng/mL
concentration at 4 h (clinical; subject A): 4200 ng/mL
concentration at 4 h (clinical; subject B): 2700 ng/mL
concentration at 4 h (clinical; subject C): 9600 ng/mL
concentration at 4 h (clinical; subject D): 7300 ng/mL
concentration at 4 h (clinical; subject E): 7000 ng/mL
concentration at 5 h (clinical; subject A): 6300 ng/mL
concentration at 5 h (clinical; subject B): 1400 ng/mL
concentration at 5 h (clinical; subject C): 4300 ng/mL
concentration at 5 h (clinical; subject D): 6900 ng/mL
concentration at 5 h (clinical; subject E): 5300 ng/mL
concentration at 0.5 h (clinical; mean): 8300 ng/mL
concentration at 1 h (clinical; mean): 13600 ng/mL
concentration at 1.5 h (clinical; mean): 11600 ng/mL
concentration at 2 h (clinical; mean): 12700 ng/mL
concentration at 3 h (clinical; mean): 10800 ng/mL
concentration at 4 h (clinical; mean): 7800 ng/mL
concentration at 5 h (clinical; mean): 5400 ng/mL

CC(C(=O)O)c1cccc(Oc2ccccc2)c1 (stereo not drawn) [Example 12, arginine salt of 2-(3-phenoxy-phenyl)-propionic acid]
Solubility in water (Solubility): moderately soluble in water

CC(C(=O)O)c1ccc(C2CCCCC2)cc1 (stereo not drawn) [Example 11, arginine salt of 2-(4-cyclohexyl-phenyl)-propionic acid]
Solubility in water (Solubility): moderately soluble in water

CC(C)Cc1ccc(C(C)C(=O)O)cc1 (stereo not drawn) [Example 9]
Solubility in water (Solubility): analogous to those of the product obtained in Example 8
pH of aqueous solution (pH of aqueous solution): analogous to those of the product obtained in Example 8

CC(C)Cc1ccc(CC(=O)O)cc1 [Example 4, lysine salt of 2-(4-isobutyl-phenyl)-acetic acid]
Solubility in water (Solubility): soluble in water

CC(C)Cc1ccc(C(C)C(=O)O)cc1 (stereo not drawn) [Example 3]
Anti-inflammatory and analgesic action compared with free acid and phenyl-butazone [1]: as active as or more active than the equivalent dose of the corresponding free acid and is as effective as a double dose of phenyl-butazone
Analgesic action, intravenous, compared with free acid and phenyl-butazone ([2]; i.v., doses of the order of 10 times less, Table 4): clearly more active and quicker acting than both the free acid and phenyl-butazone

CC(C)Cc1ccc(C(C)C(=O)O)cc1 (stereo not drawn) [Ibuprofen]
Pain threshold - carrageenin oedema ([2]; 50 mg/kg p.o. (lysine salt: 30 as active substance), 0 hrs, control 101.7 ± 3.19, 50 mg/kg): 101.0 ± 2.85 g
Pain threshold - carrageenin oedema ([2]; 50 mg/kg p.o. (lysine salt: 30 as active substance), 3 hrs, control 52.7 ± 2.00, **p = 0.01, 50 mg/kg): 85.7 ± 4.05 g
Pain threshold - carrageenin oedema ([2]; 50 mg/kg p.o. (lysine salt: 30 as active substance), 5 hrs, control 51.3 ± 2.15, **p = 0.01, 50 mg/kg): 70.7 ± 3.45 g
Pain threshold - carrageenin oedema ([2]; 100 mg/kg p.o. (lysine salt: 60 as active substance), 0 hrs, control 101.7 ± 3.19, 100 mg/kg): 105.3 ± 3.10 g
Pain threshold - carrageenin oedema ([2]; 100 mg/kg p.o. (lysine salt: 60 as active substance), 3 hrs, control 52.7 ± 2.00, **p = 0.01, 100 mg/kg): 104.3 ± 3.51 g
Pain threshold - carrageenin oedema ([2]; 100 mg/kg p.o. (lysine salt: 60 as active substance), 5 hrs, control 51.3 ± 2.15, **p = 0.01, 100 mg/kg): 80.3 ± 5.66 g
Pain threshold - carrageenin oedema ([2]; 200 mg/kg p.o. (lysine salt: 120 as active substance), 0 hrs, control 101.7 ± 3.19, 200 mg/kg): 101.0 ± 3.21 g
Pain threshold - carrageenin oedema ([2]; 200 mg/kg p.o. (lysine salt: 120 as active substance), 3 hrs, control 52.7 ± 2.00, **p = 0.01, 200 mg/kg): 119.7 ± 3.50 g
Pain threshold - carrageenin oedema ([2]; 200 mg/kg p.o. (lysine salt: 120 as active substance), 5 hrs, control 51.3 ± 2.15, **p = 0.01, 200 mg/kg): 85.7 ± 4.70 g
